Experimental data reported in patent publication US6461997B1, “Triazole sulfones having herbicidal activity” (Monsanto Technology LLC, priority 1999, dated 2002).

Experiments:
SOLNI (black nightshade) = test: Pre-plant incorporated (PPI) herbicidal activity, warm season; assay type: in vivo, Solanum nigrum
Method in brief: (§1)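 Seeds sown on compacted topsoil were covered with soil into which test compound (organic solvent solution/suspension) had been sprayed and mixed; untreated cover soil for controls. Greenhouse, 0.64 cm overhead irrigation; warm season 30/21° C, cool season 18/13° C day/night. Percent inhibition versus untreated scored ~14 days after treatment.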

[1] = system: BRAPP (broadleaf signalgrass); test: Pre-emergence herbicidal activity, warm season; assay type: in vivo, Brachiaria platyphylla; conditions: for Pre-emergence activity (GR80) BRAPP: GR80 = lowest tested rate (300, 100, 30, 10 g/ha) with 80% or greater inhibition, approx. 14 days after treating, 30/21° C.
Method in brief: (§2)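 GR80 values derive from percent inhibition relative to untreated plants, read roughly 14 days after sowing and pre-emergence soil-surface treatment (compound in 50:50 acetone/water; rates typically 10, 30, 100, 300 g/ha). Warm-season weeds grew at 30/21° C day/night, cool-season ones at 18/13° C; an asterisk marks activity without reaching 80% at the highest rate.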

PANDI (fall panicum) = test: Pre-emergence herbicidal activity, warm season; assay type: in vivo, Panicum dichotomiflorum; conditions: GR80 = lowest tested rate (300, 100, 30, 10 g/ha) with 80% or greater inhibition; approx. 14 days after treating; 30/21° C.
Method in brief: as §2

SASKR (russian thistle) = test: Pre-plant incorporated (PPI) herbicidal activity, cool season; assay type: in vivo, Salsola kali
Method in brief: as §1

[2] = system: CIRAR (canada thistle (seedling)); test: Pre-emergence herbicidal activity, warm season; assay type: in vivo, Cirsium arvense; conditions: GR80 = lowest tested rate (300, 100, 30, 10 g/ha) with 80% or greater inhibition; approx. 14 days after treating; 30/21° C.
Method in brief: (§3)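 Seeds sown in sterilised fertilised topsoil received surface-applied compound in 50:50 acetone/water, typically at 300, 100, 30 and 10 g/ha, then greenhouse-grown at 30/21° C (warm-season species) or 18/13° C (cool-season species). Percent inhibition versus untreated plants was scored at about 14 days, giving GR80; an asterisk marks activity short of 80% at the top rate.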

[3] = system: CHEAL (common lambsquarters); test: Pre-emergence herbicidal activity, warm season; assay type: in vivo, Chenopodium album; conditions: GR80 = lowest tested rate (300, 100, 30, 10 g/ha) with 80% or greater inhibition; approx. 14 days after treating; 30/21° C.
Method in brief: as §3

POROL (common purslane) = test: Pre-emergence herbicidal activity, warm season; assay type: in vivo, Portulaca oleracea; conditions: GR80 = lowest tested rate (300, 100, 30, 10 g/ha) with 80% or greater inhibition; approx. 14 days after treating; 30/21° C.
Method in brief: as §3

wheat (TRZAW) = test: Selectivity test, PPI, cool season crop; assay type: in vivo, Triticum aestivum; conditions: PPI application
Method in brief: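 Pre-plant incorporated: compound in organic solvent sprayed onto cover soil, mixed and laid over seeds; untreated soil for controls. Greenhouse after treatment: warm season 30/21° C., cool season 18/13° C. day/night. Percent inhibition versus untreated plants scored about 14 days after planting.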

[4] = system: CHEAL (common lambsquarters); test: Pre-plant incorporated (PPI) herbicidal activity, warm season; assay type: in vivo, Chenopodium album; conditions: for Percent inhibition CHEAL: PPI application
Method in brief: as §1

[5] = system: SORHA (johnsongrass (seedling)); test: Pre-emergence herbicidal activity, warm season; assay type: in vivo, Sorghum halepense; conditions: for Pre-emergence activity (GR80) SORHA: GR80 = lowest tested rate (300, 100, 30, 10 g/ha) with 80% or greater inhibition, approx. 14 days after treating, 30/21° C.
Method in brief: as §2

[6] = system: AGSST (creeping bentgrass); test: Pre-plant incorporated (PPI) herbicidal activity, cool season; assay type: in vivo, Agrostis stolonifera
Method in brief: as §1

[7] = system: BRAPP (broadleaf signalgrass); test: Pre-plant incorporated (PPI) herbicidal activity, warm season; assay type: in vivo, Brachiaria platyphylla
Method in brief: as §1

[8] = pre-plant incorporated, GR80 = lowest tested rate with 80% or greater inhibition, approx. 14 days after treating, 30/21° C.
[9] = pre-plant incorporated, lowest tested rate with 80% or greater inhibition, about 14 days
[10] = weed, PPI application, 100 g/ha
[11] = weed, PPI application, 300 g/ha
[12] = weed, PPI application, 900 g/ha

Molecule `CCN(CC)C(=O)n1cnc(S(=O)(=O)C(F)(F)Br)n1` [Example 1, 3-(bromodifluoromethylsulfonyl)-1-(N,N-diethylcarbamoyl)-1,2,4-triazole] has an inhibition at 10 g/ha (SOLNI (black nightshade); Solanum nigrum, PPI application, 10 g/ha, read-out: Percent inhibition SOLNI) of 0%, an inhibition at 30 g/ha (SOLNI (black nightshade); Solanum nigrum, PPI application, 30 g/ha, read-out: Percent inhibition SOLNI) of 0% and an inhibition at 100 g/ha (SOLNI (black nightshade); Solanum nigrum, PPI application, 100 g/ha, read-out: Percent inhibition SOLNI) of 0%. For the same molecule, the inhibition at 300 g/ha (SOLNI (black nightshade); Solanum nigrum, PPI application, 300 g/ha, read-out: Percent inhibition SOLNI) was 75%, the inhibition at 900 g/ha (SOLNI (black nightshade); Solanum nigrum, PPI application, 900 g/ha, read-out: Percent inhibition SOLNI) was 100% and the “PPI activity (GR80) SOLNI” value (SOLNI (black nightshade); [8]) was 30 g/ha. The “Pre-emergence activity (GR80) BRAPP” value [1] was “* (activity observed, at least at highest rate, but <80% inhibition)”, the inhibition at 10 g/ha ([1]; Urochloa platyphylla, pre-emergence application, 10 g/ha, read-out: Percent inhibition, weed BRAPP) was 0% and the inhibition at 30 g/ha ([1]; Urochloa platyphylla, pre-emergence application, 30 g/ha, read-out: Percent inhibition, weed BRAPP) was 0%. The inhibition at 100 g/ha ([1]; Urochloa platyphylla, pre-emergence application, 100 g/ha, read-out: Percent inhibition, weed BRAPP) was 40%, the inhibition at 300 g/ha ([1]; Urochloa platyphylla, pre-emergence application, 300 g/ha, read-out: Percent inhibition, weed BRAPP) was 70% and the “Pre-emergence activity (GR80) PANDI” value (PANDI (fall panicum)) was 30 g/ha. For the same molecule, the inhibition at 30 g/ha (SASKR (russian thistle); Salsola kali, weed, PPI application, 30 g/ha, read-out: Percent inhibition SASKR) was 80%, the inhibition at 100 g/ha (SASKR (russian thistle); Salsola kali, weed, PPI application, 100 g/ha, read-out: Percent inhibition SASKR) was 100% and the inhibition at 300 g/ha (SASKR (russian thistle); Salsola kali, weed, PPI application, 300 g/ha, read-out: Percent inhibition SASKR) was 100%. For the same molecule, the inhibition at 900 g/ha (SASKR (russian thistle); Salsola kali, weed, PPI application, 900 g/ha, read-out: Percent inhibition SASKR) was 100%, the “PPI activity GR80, SASKR” value (SASKR (russian thistle); [9]) was 100 g/ha and the “Pre-emergence activity (GR80) CIRAR” value [2] was 100 g/ha. The “Pre-emergence activity (GR80) CHEAL” value [3] was 300 g/ha, the “Pre-emergence activity (GR80) POROL” value (POROL (common purslane)) was 100 g/ha and the inhibition at 30 g/ha (wheat (TRZAW); Triticum aestivum, 30 g/ha, read-out: Percent inhibition TRZAW) was 0%. It also gave an inhibition at 100 g/ha (wheat (TRZAW); Triticum aestivum, 100 g/ha, read-out: Percent inhibition TRZAW) of 0%, an inhibition at 300 g/ha (wheat (TRZAW); Triticum aestivum, 300 g/ha, read-out: Percent inhibition TRZAW) of 10% and an inhibition at 900 g/ha (wheat (TRZAW); Triticum aestivum, 900 g/ha, read-out: Percent inhibition TRZAW) of 30%. The “PPI activity (GR80) CHEAL” value [4, 8] was 300 g/ha, the “Pre-emergence activity (GR80) SORHA” value [5] was 30 g/ha and the inhibition at 10 g/ha ([5]; Sorghum halepense, pre-emergence application, 10 g/ha, read-out: Percent inhibition, weed SORHA) was 0%. For the same molecule, the inhibition at 30 g/ha ([5]; Sorghum halepense, pre-emergence application, 30 g/ha, read-out: Percent inhibition, weed SORHA) was 0%, the inhibition at 100 g/ha ([5]; Sorghum halepense, pre-emergence application, 100 g/ha, read-out: Percent inhibition, weed SORHA) was 50% and the inhibition at 300 g/ha ([5]; Sorghum halepense, pre-emergence application, 300 g/ha, read-out: Percent inhibition, weed SORHA) was 70%. It also gave an inhibition at 900 g/ha ([5]; Sorghum halepense, pre-emergence application, 900 g/ha, read-out: Percent inhibition, weed SORHA) of 99%, an inhibition at 30 g/ha ([6]; Agrostis stolonifera, weed, PPI application, 30 g/ha, read-out: Percent inhibition AGSST) of 100% and an inhibition at 100 g/ha ([6]; Agrostis stolonifera, weed, PPI application, 100 g/ha, read-out: Percent inhibition AGSST) of 100%. The inhibition at 300 g/ha ([6]; Agrostis stolonifera, weed, PPI application, 300 g/ha, read-out: Percent inhibition AGSST) was 100%, the inhibition at 900 g/ha ([6]; Agrostis stolonifera, weed, PPI application, 900 g/ha, read-out: Percent inhibition AGSST) was 100% and the “PPI activity GR80, AGSST” value [6, 9] was 30 g/ha. The inhibition at 10 g/ha ([7]; Urochloa platyphylla, PPI application, 10 g/ha, read-out: Percent inhibition BRAPP) was 0%, the inhibition at 30 g/ha ([7]; Urochloa platyphylla, PPI application, 30 g/ha, read-out: Percent inhibition BRAPP) was 0% and the inhibition at 100 g/ha ([7]; Urochloa platyphylla, PPI application, 100 g/ha, read-out: Percent inhibition BRAPP) was 100%. For the same molecule, the inhibition at 300 g/ha ([7]; Urochloa platyphylla, PPI application, 300 g/ha, read-out: Percent inhibition BRAPP) was 90%, the inhibition at 900 g/ha ([7]; Urochloa platyphylla, PPI application, 900 g/ha, read-out: Percent inhibition BRAPP) was 100% and the “PPI activity GR80, BRAPP” value [7, 9] was 100 g/ha.
`CCN(CC)C(=O)n1cnc(S(=O)(=O)C(F)(F)F)n1` [Example 2] was tested, and the “Percent inhibition SOLNI” value (SOLNI (black nightshade); PPI application, 30 g/ha) was 30%, the “Percent inhibition SOLNI” value (SOLNI (black nightshade); PPI application, 100 g/ha) was 90% and the “Percent inhibition SOLNI” value (SOLNI (black nightshade); PPI application, 300 g/ha) was 100%. For the same molecule, the “Percent inhibition SOLNI” value (SOLNI (black nightshade); PPI application, 900 g/ha) was 90%, the “Pre-emergence activity (GR80) BRAPP” value [1] was 300 g/ha and the “Pre-emergence activity (GR80) PANDI” value (PANDI (fall panicum)) was 30 g/ha. The “Percent inhibition SASKR” value (SASKR (russian thistle); weed, PPI application, 30 g/ha) was 50%, the “Percent inhibition SASKR” value (SASKR (russian thistle); [10]) was 80% and the “Percent inhibition SASKR” value (SASKR (russian thistle); [11]) was 85%. For the same molecule, the “Percent inhibition SASKR” value (SASKR (russian thistle); [12]) was 100%, the “Pre-emergence activity (GR80) CIRAR” value [2] was 300 g/ha and the “Pre-emergence activity (GR80) CHEAL” value [3] was 100 g/ha. The “Pre-emergence activity (GR80) POROL” value (POROL (common purslane)) was 100 g/ha, the “Percent inhibition TRZAW” value (wheat (TRZAW); 30 g/ha) was 0% and the “Percent inhibition TRZAW” value (wheat (TRZAW); 100 g/ha) was 0%. The “Percent inhibition TRZAW” value (wheat (TRZAW); 300 g/ha) was 30%, the “Percent inhibition TRZAW” value (wheat (TRZAW); 900 g/ha) was 30% and the “Percent inhibition CHEAL” value ([4]; 30 g/ha) was 90%. For the same molecule, the “Percent inhibition CHEAL” value ([4]; 100 g/ha) was 95%, the “Percent inhibition CHEAL” value ([4]; 300 g/ha) was 100% and the “Percent inhibition CHEAL” value ([4]; 900 g/ha) was 100%. The “Pre-emergence activity (GR80) SORHA” value [5] was 100 g/ha, the “Percent inhibition AGSST” value ([6]; weed, PPI application, 30 g/ha) was 100% and the “Percent inhibition AGSST” value [6, 10] was 99%. For the same molecule, the “Percent inhibition AGSST” value [6, 11] was 100%, the “Percent inhibition AGSST” value [6, 12] was 100% and the “Percent inhibition BRAPP” value ([7]; PPI application, 30 g/ha) was 80%. For the same molecule, the “Percent inhibition BRAPP” value ([7]; PPI application, 100 g/ha) was 50%, the “Percent inhibition BRAPP” value ([7]; PPI application, 300 g/ha) was 90% and the “Percent inhibition BRAPP” value ([7]; PPI application, 900 g/ha) was 70%.
